This assay deals with IDO1 (Homo sapiens, UniProt P14902). Nature of the assay: IDO1 Cellular Assay in HeLa Cells Stimulated with IFNγ. In kind it is cell-based. Particulars: read-out: HeLa Cell Potency, IC50.

The record followed here is US12264134B2 (Merck Sharp & Dohme LLC, priority 2018, dated 2025).

Some results are limits rather than exact numbers.

Sequence of IDO1 (P14902 whole entry): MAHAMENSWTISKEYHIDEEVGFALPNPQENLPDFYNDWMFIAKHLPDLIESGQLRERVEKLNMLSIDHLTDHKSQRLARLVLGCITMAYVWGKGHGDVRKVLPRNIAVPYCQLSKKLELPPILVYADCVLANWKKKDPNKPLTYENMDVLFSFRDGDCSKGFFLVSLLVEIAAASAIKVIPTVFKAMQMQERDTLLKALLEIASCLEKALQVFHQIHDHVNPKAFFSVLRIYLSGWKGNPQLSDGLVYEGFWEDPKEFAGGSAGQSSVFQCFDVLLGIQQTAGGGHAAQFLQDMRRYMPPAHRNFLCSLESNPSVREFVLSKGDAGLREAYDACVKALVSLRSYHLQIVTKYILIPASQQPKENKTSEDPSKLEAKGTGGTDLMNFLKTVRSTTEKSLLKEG

For `Cc1cccc(N2CCN(C(=O)Cn3nc(C(=O)N4CCC5(CCNC5)CC4)c4c3CCC4)CC2)c1C` [Example 175, 2-[3-(2,8-diazaspiro[4.5]decane-8-carbonyl)-5,6-dihydrocyclopenta[c]pyrazol-1(4H)-yl]-1-[4-(2,3-dimethylphenyl)piperazin-1-yl]ethan-1-one], the concentration for half-maximal inhibition (IC50) worked out at 498 nM. Under `Cc1cccc(N2CCN(C(=O)Cn3nc(C(=O)N4C[C@@H](C)O[C@@H](C)C4)c4c3CC3CC43)CC2)c1C` (stereo partly drawn) [Example 310, 2-{3-[(2R,6S)-2,6-dimethylmorpholine-4-carbonyl]-3b-4,4a,5-tetrahydro-1H-cyclopropa[3,4]cyclopenta[1,2-c]pyrazol-1-yl}-1-[4-(2,3-dimethylphenyl)piperazin-1-yl]ethan-1-one] stands 1.86 nM. For `Cc1cccc(N2CCN(C(=O)Cn3nc(C(=O)N4CCCC5(CCNC5=O)C4)c4c3CCC4)CC2)c1C` (stereo not drawn) [Example 193, 7-(1-{2-[4-(2,3-dimethylphenyl)piperazin-1-yl]-2-oxoethyl}-1,4,5,6-tetrahydrocyclopenta[c]pyrazole-3-carbonyl)-2,7-diazaspiro[4.5]decan-1-one], the IC50 was determined as 75 nM. The figure for `Cc1cccc(N2CCN(C(=O)Cn3nc(C(=O)N4CC[C@H](O)[C@@H](F)C4)c4c3CCCCC4)CC2)c1C` [Example 413, 1-(4-(2,3-dimethylphenyl)piperazin-1-yl)-2-(3-((3S,4S)-3-fluoro-4-hydroxypiperidine-1-carbonyl)-5,6,7,8-tetrahydrocyclohepta[c]pyrazol-1(4H)-yl)ethanone] is 9.29 nM; for `Cc1cccc(N2CCN(C(=O)Cn3nc(C(=O)N4CCC5(CC4)COCC5O)c4c3CCC4)CC2)c1C` (stereo not drawn) [Example 182, 1-[4-(2,3-dimethylphenyl)piperazin-1-yl]-2-[3-(4-hydroxy-2-oxa-8-azaspiro[4.5]decane-8-carbonyl)-5,6-dihydrocyclopenta[c]pyrazol-1(4H)-yl]ethan-1-one] it is 6.25 nM. The figure for `O=C(Cn1nc(C(=O)N2CC[C@H](O)[C@H](F)C2)c2c1CCC2)N1CCN(C2CCCc3ccccc32)CC1` (single isomer, unassigned) [Example 427] is above 10000 nM; for `Cc1cccc(N2CCN(C(=O)Cn3nc(C(=O)N4CCN(C(=O)CO)CC4)c4c3C[C@H]3C[C@@H]43)C(C(F)F)C2)c1C` (stereo partly drawn) [Example 390] it is 226 nM; for `Cc1cccc(N2CCN(C(=O)Cn3nc(C(=O)N4CCC5(CC4)COCC5O)c4c3CCC4)CC2)c1C` (stereo not drawn) [Example 114, 1-[4-(2,3-dimethylphenyl)piperazin-1-yl]-2-[3-(4-hydroxy-2-oxa-8-azaspiro[4.5]decane-8-carbonyl)-5,6-dihydrocyclopenta[c]pyrazol-1(4H)-yl]ethan-1-one] it is 6.33 nM. In the case of `Cc1cccc(N2CCN(C(=O)Cn3nc(C(=O)N4CCCC(O)CC4)c4c3CCC4)CC2)c1C` (stereo not drawn) [Example 118], the IC50 turned out to be 13.9 nM. As to `Cc1cccc(N2CCN(C(=O)Cn3nc(C(=O)N4CCC(C)(C(N)=O)CC4)c4c3C[C@H]3C[C@@H]43)CC2)c1C` [Example 220, 1-[(3bR,4aR)-1-{2-[4-(2,3-dimethylphenyl)piperazin-1-yl]-2-oxoethyl}-3b,4,4a,5-tetrahydro-1H-cyclopropa[3,4]cyclopenta[1,2-c]pyrazole-3-carbonyl]-4-methylpiperidine-4-carboxamide], the IC50 came to 1.53 nM.

Take `Cc1cccc(N2CCN(C(=O)Cn3nc(C(=O)N4CCC(=O)N(C)CC4)c4c3CCC4)CC2)c1C` [Example 84, 1-(1-{2-[4-(2,3-dimethylphenyl)piperazin-1-yl]-2-oxoethyl}-1,4,5,6-tetrahydrocyclopenta[c]pyrazole-3-carbonyl)-4-methyl-1,4-diazepan-5-one]: the IC50 is 15.6 nM.

Consider `Cc1cccc(N2CCN(C(=O)Cn3nc(C(=O)N4CCC5(CC4)CNC(=O)N5)c4c3CCC4)CC2)c1C` [Example 184, 8-(1-{2-[4-(2,3-dimethylphenyl)piperazin-1-yl]-2-oxoethyl}-1,4,5,6-tetrahydrocyclopenta[c]pyrazole-3-carbonyl)-1,3,8-triazaspiro[4.5]decan-2-one], for which the IC50 was determined as 80.2 nM. With `Cc1c(Cl)cccc1N1CCN(C(=O)Cn2nc(C(=O)N3CCN(C(=O)CO)CC3)c3c2CCC(F)C3)CC1` (stereo not drawn) [Example 371, 1-(4-(3-chloro-2-methylphenyl)piperazin-1-yl)-2-(5-fluoro-3-(4-(2-hydroxyacetyl)piperazine-1-carbonyl)-4,5,6,7-tetrahydro-1H-indazol-1-yl)ethan-1-one], the IC50 is 15.7 nM. Under `Cc1cccc(N2CCN(C(=O)Cn3nc(C(=O)N4CCC(NC(=O)NN)CC4)c4c3C[C@H]3C[C@@H]43)CC2)c1C` [Example 242, N-{1-[(3bR,4aR)-1-{2-[4-(2,3-dimethylphenyl)piperazin-1-yl]-2-oxoethyl}-3b,4,4a,5-tetrahydro-1H-cyclopropa[3,4]cyclopenta[1,2-c]pyrazole-3-carbonyl]piperidin-4-yl}hydrazinecarboxamide] stands 101 nM. The figure for `C[C@@H]1CN(C(=O)c2nn(CC(=O)N3CCN(c4ccc(C(F)(F)F)cc4)CC3)c3c2CCC3)C[C@H](C)O1` [Example 51, 2-{3-[(2R,6S)-2,6-dimethylmorpholine-4-carbonyl]-5,6-dihydrocyclopenta[c]pyrazol-1(4H)-yl}-1-{4-[4-(trifluoromethyl)phenyl]piperazin-1-yl}ethan-1-one] is 173 nM; for `Cc1cccc(N2CCN(C(=O)Cn3nc(C(=O)N4CCC(O)CC4)c4c3CC(F)(F)CC4)CC2)c1C` [Example 21, 2-(6,6-difluoro-3-(4-hydroxypiperidine-1-carbonyl)-4,5,6,7-tetrahydro-1H-indazol-1-yl)-1-(4-(2,3-dimethylphenyl)piperazin-1-yl)ethanone] it is 5.13 nM; for `C[C@@H]1CN(C(=O)c2nn(CC(=O)N3CCN(c4cccc5c4CCCC5)CC3)c3c2CCC3)C[C@H](C)O1` [Example 52, 2-{3-[(2R,6S)-2,6-dimethylmorpholine-4-carbonyl]-5,6-dihydrocyclopenta[c]pyrazol-1(4H)-yl}-1-[4-(5,6,7,8-tetrahydronaphthalen-1-yl)piperazin-1-yl]ethan-1-one] it is 10.4 nM.

As to `Cc1cccc(N2CCN(C(=O)Cn3nc(C(=O)N4CC5(CCN(C)C5)C4)c4c3C[C@H]3C[C@@H]43)CC2)c1C` [Example 243, 1-[4-(2,3-dimethylphenyl)piperazin-1-yl]-2-[(3bR,4aR)-3-(6-methyl-2,6-diazaspiro[3.4]octane-2-carbonyl)-3b,4,4a,5-tetrahydro-1H-cyclopropa[3,4]cyclopenta[1,2-c]pyrazol-1-yl]ethan-1-one], the IC50 worked out at 160 nM. For the compound `Cc1cccc(N2CCN(C(=O)Cn3nc(C(=O)N4CC[C@@H](O)[C@@H](O)C4)c4c3CCC4)CC2)c1C` [Example 104, 2-{3-[(3S,4R)-3,4-dihydroxypiperidine-1-carbonyl]-5,6-dihydrocyclopenta[c]pyrazol-1(4H)-yl}-1-[4-(2,3-dimethylphenyl)piperazin-1-yl]ethan-1-one], the IC50 stood at 49.6 nM. Turning to `Cc1cccc(N2CCN(C(=O)Cn3nc(C(=O)N4CCCC5(C4)NC(=O)NC5=O)c4c3C[C@H]3C[C@@H]43)CC2)c1C` (stereo partly drawn) [Example 224, 7-[(3bR,4aR)-1-{2-[4-(2,3-dimethylphenyl)piperazin-1-yl]-2-oxoethyl}-3b,4,4a,5-tetrahydro-1H-cyclopropa[3,4]cyclopenta[1,2-c]pyrazole-3-carbonyl]-1,3,7-triazaspiro[4.5]decane-2,4-dione], the IC50 is 16.5 nM. The figure for `Cc1cccc(N2CCN(C(=O)Cn3nc(C(=O)N4CC[C@@H](F)[C@@H](O)C4)c4c3CCC4)CC2)c1C` [Example 204, 1-[4-(2,3-dimethylphenyl)piperazin-1-yl]-2-[3-[(3S,4R)-4-fluoro-3-hydroxy-piperidine-1-carbonyl]-5,6-dihydro-4H-cyclopenta[c]pyrazol-1-yl]ethanone] is 13.1 nM. Consider `Cc1cccc(N2CCN(C(=O)Cn3nc(C(=O)N4CCC5(CC4)CNC(=O)CO5)c4c3C[C@H]3C[C@@H]43)CC2)c1C` [Example 244, 9-[(3bR,4aR)-1-{2-[4-(2,3-dimethylphenyl)piperazin-1-yl]-2-oxoethyl}-3b,4,4a,5-tetrahydro-1H-cyclopropa[3,4]cyclopenta[1,2-c]pyrazole-3-carbonyl]-1-oxa-4,9-diazaspiro[5.5]undecan-3-one], for which the IC50 is 4.77 nM. Turning to `Cc1cccc(N2CCN(C(=O)Cn3nc(C(=O)N4CCC(O)(CCC(F)(F)F)CC4)c4c3CCC4)CC2)c1C` [Example 170, 1-[4-(2,3-dimethylphenyl)piperazin-1-yl]-2-{3-[4-hydroxy-4-(3,3,3-trifluoropropyl)piperidine-1-carbonyl]-5,6-dihydrocyclopenta[c]pyrazol-1(4H)-yl}ethan-1-one], the IC50 came out at 6.31 nM. The figure for `Cc1cccc(N2CCN(C(=O)Cn3nc(C(=O)N4CCCC4)c4c3CCC(F)(F)C4)CC2)c1C` [Example 6, 2-(5,5-difluoro-3-(pyrrolidine-1-carbonyl)-4,5,6,7-tetrahydro-1H-indazol-1-yl)-1-(4-(2,3-dimethylphenyl)piperazin-1-yl)ethanone] is 8.13 nM; for `Cc1cccc(N2CCN(C(=O)Cn3nc(C(=O)N4CC5(CNC5)C4)c4c3C[C@H]3C[C@@H]43)CC2)c1C` [Example 232, 2-[(3bR,4aR)-3-(2,6-diazaspiro[3.3]heptane-2-carbonyl)-3b,4,4a,5-tetrahydro-1H-cyclopropa[3,4]cyclopenta[1,2-c]pyrazol-1-yl]-1-[4-(2,3-dimethylphenyl)piperazin-1-yl]ethan-1-one] it is 61.4 nM. The figure for `O=C(Cn1nc(C(=O)N2CC[C@H](O)[C@H](F)C2)c2c1CCC2)N1CCN(C2CCc3ccccc32)CC1` (mixture of isomers) [Example 438, 1-(4-(2,3-dihydro-1H-inden-1-yl)piperazin-1-yl)-2-(3-((3R,4S)-3-fluoro-4-hydroxypiperidine-1-carbonyl)-5,6-dihydrocyclopenta[c]pyrazol-1(4H)-yl)ethanone] is 1590 nM; for `O=C(Cn1nc(C(=O)N2CC[C@H](O)[C@@H](F)C2)c2c1CCC2)N1CCN(C2CCCc3ccccc32)CC1` (stereo partly drawn) [Example 434, 2-(3-((3S,4S)-3-fluoro-4-hydroxypiperidine-1-carbonyl)-5,6-dihydrocyclopenta[c]pyrazol-1(4H)-yl)-1-(4-(1,2,3,4-tetrahydronaphalen-1-yl)piperazin-1-yl)ethanone] it is 8050 nM.
